This is an account of results in patent US10287267B2, “Isoquinolin-3-yl carboxamides and preparation and use thereof” (Samumed, LLC, priority 2016, dated 2019).

In assay [1] the test system is SW480 colon carcinoma cells. Description: Cell viability assay (CellTiter-Glo). The format is cell-based, human. Particulars: Homo sapiens; for EC50: 96 h, SW480 cells, CellTiter-Glo, four days incubation; for inhibition at 10 µM: SW480, read-out: percent inhibition at 10 μM. In general terms: In ATP-based viability assays light output follows the ATP content of the culture.

The test system of a further assay is IL-6. Briefly: IL-6 inhibition in LPS-stimulated human peripheral blood mononuclear cells (HTRF).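 For all read-outs here: IL-6 detected by HTRF with an XL665- and Cryptate-labelled anti-IL-6 antibody pair, samples run in duplicate, EC50 obtained from a four-parameter Levenberg-Marquardt curve fit.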 Format: cell-based. The following applies: Homo sapiens, PBMC; for EC50: Table 9, huPBMCs, LPS 50 ng/mL, 22 hours, dose-response starting from 10 μM; for inhibition at 10 µM: read-out: percent value in parentheses beside EC50 >10 μM.
For assay [2], the target named is recombinant DYRK1A kinase (Homo sapiens (Human), UniProt Q13627). Briefly: DYRK1A kinase assay (Ser/Thr 18 peptide Z-lyte FRET).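 Note: Read-out is the coumarin to fluorescein emission ratio, referenced to unphosphorylated (0%) and phosphorylated (100%) Ser/Thr 18 peptide controls, values from dose-response curves by non-linear regression.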 Format: biochemical. The following applies: 30 μM ATP, 1 h room temperature.
Assay [3] relates to Tau phosphorylation at Ser396 (pSer396). Briefly: Tau phosphorylation assay (pSer396 ELISA / western blot) in SH-SY5Y cells.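 Note: EC50 for reduction of Tau pSer396 in lysed cells, measured by colorimetric ELISA or chemiluminescent western blot, both using the same pSer396 antibody.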 The format is cell-based, human. Particulars: Homo sapiens; SH-SY5Y cells, overnight (16-18 h) exposure; read-out: pSer396 Tau EC50. In general terms: ELISA stands for enzyme-linked immunosorbent assay.
Assay [4] concerns α-smooth muscle actin (αSMA) positive LL29 cells. Briefly: Inhibition of fibrotic process: αSMA in TGF-β1 treated primary human fibroblasts from IPF patients.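 For all read-outs here: controls were TGF-β1 stimulated wells with DMSO vehicle (positive) and cells given DMSO alone (negative), cultured in F12 medium with 1% fetal bovine serum.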 Format: cell-based. The following applies: Homo sapiens, Fibroblast; for EC50: 96 h, Table 8, LL29 fibroblasts from IPF patients, TGF-β1 20 ng/mL, 4 days, dose-response 10 μM to 0.94 nM; for inhibition at 10 µM: read-out: percent value in parentheses beside EC50 >10 μM.

Assay [5] relates to Wnt pathway (Sp5-Luc reporter, TCF/LEF binding sites) in SW480 colon carcinoma cells. Briefly: Screening assay for Wnt activity: Sp5-Luc reporter gene assay.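 For all read-outs here: firefly luciferase luminescence read in stably transduced SW480 cells carrying the Sp5 promoter reporter with eight TCF/LEF sites, compounds given in 0.1% DMSO final.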 The format is cell-based, human. The following applies: Homo sapiens; for EC50: Sp5-Luc reporter, SW480 cells, 36 to 48 hours; for inhibition at 10 µM: SW480, read-out: percent inhibition at 10 μM. A general note: A reporter such as luciferase makes a cellular process visible.
Procedure: The screening assay for Wnt activity is described as follows.
Following incubation, 15 μl of BriteLite Plus luminescence reagent (Perkin Elmer) was added to each well of the 384-well assay plates. The plates were placed on an orbital shaker for 2 min and then luminescence was quantified using the Envision (Perkin Elmer) plate reader.

For the next assay, the target named is recombinant GSK3β kinase (Homo sapiens (Human), UniProt P49841). Briefly: GSK3β kinase assay (Ser/Thr 09 peptide Z-lyte FRET).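 Note: kinase activity read as coumarin to fluorescein emission ratio, 11-point threefold dilutions from 10 µM to 0.0003 µM in duplicate, unphosphorylated and phosphorylated peptide as 0% and 100% controls.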 The format is biochemical. The following applies: 46 μM ATP, 1 h room temperature.
Chain of recombinant GSK3β kinase (P49841 whole entry): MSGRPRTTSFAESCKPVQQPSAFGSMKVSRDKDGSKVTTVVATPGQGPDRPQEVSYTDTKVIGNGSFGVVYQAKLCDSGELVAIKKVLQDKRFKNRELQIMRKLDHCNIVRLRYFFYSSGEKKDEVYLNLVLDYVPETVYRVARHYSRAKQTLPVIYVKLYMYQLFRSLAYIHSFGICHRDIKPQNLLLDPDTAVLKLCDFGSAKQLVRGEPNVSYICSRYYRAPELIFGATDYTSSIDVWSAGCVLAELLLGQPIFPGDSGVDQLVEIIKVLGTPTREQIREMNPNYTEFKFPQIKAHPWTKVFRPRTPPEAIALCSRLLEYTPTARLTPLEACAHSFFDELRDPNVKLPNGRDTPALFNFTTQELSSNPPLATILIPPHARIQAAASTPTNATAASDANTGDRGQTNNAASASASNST

Each structure is given as a SMILES string. Bounds are passed on as bounds.

Procedure for IL-6: After 22 hour incubation, a mixture of anti-IL6 XL665 and anti-IL-6 Cryptate diluted in reconstitution buffer (Catalog #62IL6PEC, Cisbio Inc., Bedford, Mass.) was added to each well. […] All samples were processed in duplicate. […] EC50 was determined using software generated by Dotmatics Limited (Windhill Bishops Stortford Herts, UK) using the Levenberg-Marquardt 4 parameter fitting procedure with finite different gradients.

By EC50 is commonly meant the concentration that produces a half-maximal response. Take `CC(C(=O)Nc1cc2cc(-c3cncs3)ccc2cn1)N1CCCC1` (stereo not shown) [Compound 758, 2-(Pyrrolidin-1-yl)-N-(6-(thiazol-5-yl)isoquinolin-3-yl)propanamide]: the EC50 in assay [1] is 1.34 µM; with IL-6, 2.87 µM; in assay [2], 0.0243 µM; in assay [3], 0.384 µM; in assay [4] it was 0.265 µM; in assay [5], 1.25 µM. For the same compound, the EC50 on recombinant GSK3β kinase amounted to 0.05 µM.

In the case of `O=C(CN1CCCCC1)Nc1cc2cc(-c3cncs3)ccc2cn1` [Compound 760, 2-(Piperidin-1-yl)-N-(6-(thiazol-5-yl)isoquinolin-3-yl)acetamide], the EC50 was found to be 3.28 µM in assay [1]; 1.25 µM in the assay on IL-6; 0.0038 µM in assay [2]; 1.2 µM in assay [3]; 0.765 µM in assay [4]; 3.97 µM in assay [5]. The EC50 at recombinant GSK3β kinase is 0.133 µM.

Regarding `CN1CCN(CC(=O)Nc2cc3cc(-c4cncs4)ccc3cn2)CC1` [Compound 767, 2-(4-Methylpiperazin-1-yl)-N-(6-(thiazol-5-yl)isoquinolin-3-yl)acetamide], the EC50 in assay [1] was 9.05 µM; with IL-6, 3.82 µM; in assay [2], 0.0043 µM; in assay [3], 1 µM; in assay [4], greater than 10 µM; in assay [5], 3.23 µM. Moreover, the EC50 at recombinant GSK3β kinase was 0.157 µM. The inhibition at 10 µM in assay [4] came out at 33.2%.

As for `O=C(CN1CCOCC1)Nc1cc2cc(-c3cncs3)ccc2cn1` [Compound 773, 2-Morpholino-N-(6-(thiazol-5-yl)isoquinolin-3-yl)acetamide], the EC50 in assay [1] was greater than 10 µM; in the assay on IL-6, 3.48 µM; in assay [2], 0.0038 µM; in assay [3], 2.2 µM; in assay [4], greater than 10 µM; in assay [5], 6.55 µM. Besides, the EC50 on recombinant GSK3β kinase turned out to be 0.219 µM. Moreover, the figures for the inhibition at 10 µM in assay [1] and in assay [4] were 48.4% and 30.3%, respectively.

Consider `Cn1ncc(-c2ccc3cnc(NC(=O)C(C)(C)F)cc3c2)c1CN1CCCCC1` [Compound 784, 2-Fluoro-2-methyl-N-(6-(1-methyl-5-(piperidin-1-ylmethyl)-1H-pyrazol-4-yl)isoquinolin-3-yl)propanamide], for which the EC50 in assay [1] is greater than 10 µM; in the assay on IL-6 it was greater than 10 µM; in assay [2] it was 0.0108 µM; in assay [3], 2.2 µM; in assay [4], greater than 10 µM; in assay [5] it was 5.88 µM. For the same compound, the EC50 at recombinant GSK3β kinase was 0.133 µM. For the same compound, the inhibition at 10 µM came out at 39.7% in assay [1], 3.7% with IL-6 and 37.4% in assay [4].

As to `CCN(CC)CC(=O)Nc1cc2cc(-c3cnn(C)c3CN3CCCCC3)ccc2cn1` [Compound 785, 2-(Diethylamino)-N-(6-(1-methyl-5-(piperidin-1-ylmethyl)-1H-pyrazol-4-yl)isoquinolin-3-yl)acetamide], the EC50 in assay [1] amounted to 2.86 µM; in the assay with IL-6 it was 9.15 µM; in assay [2], 0.0101 µM; in assay [3], 0.485 µM; in assay [4] it was 1.17 µM; in assay [5] it was 2.84 µM. For the same compound, the EC50 at recombinant GSK3β kinase was determined as 0.044 µM.

As to `Cn1ncc(-c2ccc3cnc(NC(=O)C4CC5(C4)CN(CCF)C5)cc3c2)c1CN1CCCCC1` [Compound 791, 2-(2-Fluoroethyl)-N-(6-(1-methyl-5-(piperidin-1-ylmethyl)-1H-pyrazol-4-yl)isoquinolin-3-yl)-2-azaspiro[3.3]heptane-6-carboxamide], the concentration for a half-maximal effect (EC50) in assay [1] stood at 0.137 µM; in the assay on IL-6 it was 0.35 µM; in assay [2], 0.0022 µM; in assay [3], 0.055 µM; in assay [4], 0.067 µM; in assay [5] it was 0.212 µM. At recombinant GSK3β kinase, the EC50 was 0.005 µM.

In the case of `CO[C@H]1CC[C@H](C(=O)Nc2cc3cc(-c4cnn(C)c4CN4CCCCC4)ccc3cn2)CC1` [Compound 795, trans-4-Methoxy-N-(6-(1-methyl-5-(piperidin-1-ylmethyl)-1H-pyrazol-4-yl)isoquinolin-3-yl)cyclohexane-1-carboxamide], the EC50 in assay [1] was determined as 0.806 µM; in the assay with IL-6, 1.22 µM; in assay [2], 0.0024 µM; in assay [3], 0.401 µM; in assay [4], 0.227 µM; in assay [5] it was 0.471 µM. Moreover, the EC50 at recombinant GSK3β kinase was determined as 0.033 µM.

Consider `Cn1ncc(-c2ccc3cnc(NC(=O)[C@H]4CCCN4)cc3c2)c1CN1CCCCC1` [Compound 803, (R)—N-(6-(1-Methyl-5-(piperidin-1-ylmethyl)-1H-pyrazol-4-yl)isoquinolin-3-yl)pyrrolidine-2-carboxamide], for which the EC50 is 4.53 µM in assay [1]; 3.32 µM with IL-6; 0.0126 µM in assay [2]; 3.7 µM in assay [3]; greater than 10 µM in assay [4]; 3.55 µM in assay [5]. In addition, the EC50 at recombinant GSK3β kinase was found to be 0.164 µM. In addition, the inhibition at 10 µM in assay [4] worked out at 27.8%.

For `CC(C)CN1CCC(C(=O)Nc2cc3cc(-c4cnn(C)c4CN4CCCCC4)ccc3cn2)CC1` [Compound 822, 1-isobutyl-N-(6-(1-methyl-5-(piperidin-1-ylmethyl)-1H-pyrazol-4-yl)isoquinolin-3-yl)piperidine-4-carboxamide], the EC50 in assay [1] turned out to be 0.708 µM; with IL-6, 3.26 µM; in assay [2] it was 0.0041 µM; in assay [3], 0.247 µM; in assay [4], 0.212 µM; in assay [5] it was 0.517 µM. Further, the EC50 on recombinant GSK3β kinase was 0.009 µM.

`Cn1ncc(-c2ccc3cnc(NC(=O)C4CCN(C5COC5)CC4)cc3c2)c1CN1CCCCC1` [Compound 826, N-(6-(1-Methyl-5-(piperidin-1-ylmethyl)-1H-pyrazol-4-yl)isoquinolin-3-yl)-1-(oxetan-3-yl)piperidine-4-carboxamide]: the EC50 is 0.897 µM in assay [1]; 3.29 µM in the assay with IL-6; 0.0039 µM in assay [2]; 0.568 µM in assay [3]; 0.149 µM in assay [4]; 0.603 µM in assay [5]. Also, the EC50 at recombinant GSK3β kinase worked out at 0.007 µM.

In the case of `Cn1ncc(-c2ccc3cnc(NC(=O)C4CCN(C(=O)c5ccccc5)CC4)cc3c2)c1CN1CCCCC1` [Compound 831, 1-Benzoyl-N-(6-(1-methyl-5-(piperidin-1-ylmethyl)-1H-pyrazol-4-yl)isoquinolin-3-yl)piperidine-4-carboxamide], the EC50 in assay [1] was 0.911 µM; with IL-6 it was 0.812 µM; in assay [2] it was 0.0032 µM; in assay [3], 0.189 µM; in assay [4], 0.244 µM; in assay [5] it was 0.706 µM. Moreover, the EC50 at recombinant GSK3β kinase came to 0.01 µM.

Consider `CC1CCN(CC(=O)Nc2cc3cc(-c4cnn(C)c4CN4CCCCC4)ccc3cn2)CC1` [Compound 851, N-(6-(1-Methyl-5-(piperidin-1-ylmethyl)-1H-pyrazol-4-yl)isoquinolin-3-yl)-2-(4-methylpiperidin-1-yl)acetamide], for which the EC50 in assay [1] was greater than 10 µM; in the assay on IL-6, greater than 10 µM; in assay [2], 5.01 µM; in assay [3], 0.35 µM; in assay [4] it was 0.692 µM; in assay [5], greater than 10 µM. Further, at recombinant GSK3β kinase, the concentration giving a half-maximal response (EC50) was determined as 5 µM. Also, the inhibition at 10 µM was 30.4% in assay [1], 2.9% in the assay with IL-6 and 6.4% in assay [5].

For the compound `Cc1nnc(-c2ccc3cnc(NC(=O)C4(F)CCCCC4)cc3c2)s1` [Compound 883, 1-Fluoro-N-(6-(5-methyl-1,3,4-thiadiazol-2-yl)isoquinolin-3-yl)cyclohexane-1-carboxamide], the EC50 in assay [1] is greater than 10 µM; in the assay on IL-6, greater than 10 µM; in assay [2], 0.0089 µM; in assay [3], 1.1 µM; in assay [4] it was greater than 10 µM; in assay [5] it was greater than 10 µM. The EC50 on recombinant GSK3β kinase turned out to be 0.076 µM. In addition, the inhibition at 10 µM in assay [1] was found to be 35.5%; in the assay with IL-6, 9.1%; in assay [4], 14%; in assay [5], 43.2%.

`CO[C@H]1CC[C@H](C(=O)Nc2cc3cc(-c4nnc(C)s4)ccc3cn2)CC1` [Compound 885, trans-4-Methoxy-N-(6-(5-methyl-1,3,4-thiadiazol-2-yl)isoquinolin-3-yl) cyclohexane-1-carboxamide]: the EC50 is 7.72 µM in assay [1]; greater than 10 µM with IL-6; 0.0346 µM in assay [2]; 0.878 µM in assay [3]; 2.62 µM in assay [4]; 4.48 µM in assay [5]. For the same compound, the EC50 at recombinant GSK3β kinase worked out at 0.046 µM. The inhibition at 10 µM in the assay on IL-6 is 7%.

On to `Cc1nnc(-c2ccc3cnc(NC(=O)C4CCN(CCF)CC4)cc3c2)s1` [Compound 900, 1-(2-Fluoroethyl)-N-(6-(5-methyl-1,3,4-thiadiazol-2-yl)isoquinolin-3-yl) piperidine-4-carboxamide], for which the EC50 in assay [1] was 3.88 µM; in the assay with IL-6 it was 9.86 µM; in assay [2], 0.0029 µM; in assay [3], 0.18 µM; in assay [4] it was 0.449 µM; in assay [5], 1.01 µM. The EC50 on recombinant GSK3β kinase turned out to be 0.011 µM.
